Experimental data reported in patent publication US6586460B1, “Heteroarotinoids containing urea or thiourea linker” (The Board of Regents for Oklahoma State University, priority 2001, dated 2003).
Several values for one entry are separate records, joined by “and”; a condition that tells them apart may be missing. Identical values can stand only once.

Key:
OVCAR-3 = assay: Growth inhibition assay (SRB); type: cell-based, human; details: for Percentage of growth inhibition, OVCAR−3 / inhibition at 1 µM / inhibition at 10 µM: 3 days of treatment; for inhibition at 1 µM / inhibition at 10 µM: Homo sapiens, OVCAR-3, 72 h, read-out: Percentage of growth inhibition, OVCAR−3
From the text: (§1) To illustrate the general and useful biological activity of the heteroarotinoids described in this invention, selected compounds were screened for ability to inhibit the growth of three ovarian cancerous cell lines, namely Caov, SKOV, and OVCAR cell lines, three cervical cell lines (Cervix HPV-Wt p53, Cervix HPV-Mut p53, and Cervix HPV-Mut p53), and one vulvar (Vulvar HPV-Mut p53) cell line as shown in Tables I-III. The cell lines and the technology have been previously described [See Journal of Medicinal Chemistry, 1999, Vol. 42, pages 3602-3614 in an article entitled “Synthesis, Structure-Activity Relationships, and RAR γ-Ligand Interactions of Nitrogen Heteroarotinoids” by A. Dhar, S. Liu, J. Klucik, K. D. Berlin, M. M. Madler, S. Lu, R. T. Ivey, D. Zacheis, C. W. Brown, E. C. Nelson, P. J. Birckbichler, and D. M. Benbrook], but the general technique was slightly modified. Cultures of the cancerous cells were plated in volumes of 150 μL in 96-well microtiter plates at concentrations of 2000-4000 cells/well, depending upon the cell line used. Retinoids were added the next day at 4× the concentrations in 50 μL of media resulting in 1, 2, 3, 4, 5, 7, and 10 μM final concentrations of each retinoid. Control cultures were treated with the same volume of DMSO. After 3 days of treatment, the cell density in each well was determined by fixing the cells in trichloroacetic acid followed by staining the cytoplasmic proteins with sulforhoamine B (SRB). After rinsing, the SRB was solubilized in Tris-HCl, and the optical density of each culture was determined with a MR600 microtiter plate reader. Each experiment was performed in triplicate, and the three values of each treatment were averaged. The average OD of the treated cultures was divided by that of the control cultures treated with solvent alone. To determine the percent growth inhibition, this ratio was subtracted from 1 and multiplied by 100. Tables I, II, and III contain representative examples of the inhibition of growth by the inventive heteroarotinoids of the cancerous cell lines investigated at two independent concentrations (1 and 10 μM). As standards for comparison purposes, trans-retinoic acid (t-RA), 9-cis-retinoic acid (9-c-RA), 13-cis-retinoic acid (13-c-RA), and […] (4-HPR) were added in parallel experiments along with the heteroarotinoids and with dimethyl sulfoxide (DMSO) as the solvent. For convenience, the data in Tables II and III are duplicated and ranked according to tumor type.

CAOV-3 = assay: Growth inhibition assay (SRB); type: cell-based; details: 3 days of treatment; for inhibition at 1 µM / inhibition at 10 µM: Homo sapiens, Caov-3, 72 h, read-out: Percentage of growth inhibition, CAOV−3
From the text: as §1

SK-OV-3 = assay: Growth inhibition assay (SRB); type: cell-based; details: 3 days of treatment; for inhibition at 1 µM / inhibition at 10 µM: Homo sapiens, SK-OV-3, 72 h, read-out: Percentage of growth inhibition, SKOV−3
From the text: as §1

[1] = tested on: SW962 vulvar carcinoma cultures; assay: Apoptosis assay, Annexin-V-Flous/propidium iodide flow cytometry; type: cell-based
From the text: Optimal chemotherapeutic agents will selectively kill tumor cells by inducing a natural form of cell death which is called “apoptosis”. Toxic agents kill both normal and tumor cells via a nonspecific process known as “necrosis”. To differentiate between apoptosis and necrosis in heteroarotinoid-treated cultures, a flow cytometric assay was employed. Treated cultures were stained with Annexin-V-Flous and propidium iodide, and the intensities of the stains are quantitated with Flow Cytometry. The Annexin-V-Flous binds to phosphatidyl serine on the exterior of apoptosing cells. This assay is specific for apoptosing cells because phosphatidyl serine is normally located on the inner membrane of the cells, a situation whereby the serine derivative cannot be bound by Annexin. However, during apoptosis, phosphatidyl serine is translocated to the outer membrane. The Flous moiety emits a signal that can be detected and quantitated by Flow Cytometry. In contrast, propidium iodide is taken up by necrotic cells that have lost membrane integrity. In this study, t-RA was used as a control for the non-apoptotic retinoids, and 4-HPR was used as a control for the apoptotic retinoids.

| Compound | Percentage of growth inhibition, OVCAR−3 (OVCAR-3; 1 μM, Table II) | Percentage of growth inhibition, OVCAR−3 (OVCAR-3; 10 μM, Table III) | Percentage of growth inhibition, CAOV−3 (CAOV-3; 1 μM, Table II) | Percentage of growth inhibition, SKOV−3 (SK-OV-3; 1 μM, Table II) | Percentage of growth inhibition, SKOV−3 (SK-OV-3; 10 μM, Table III) | Percentage of growth inhibition, CAOV−3 (CAOV-3; 10 μM, Table III) | also measured |
| --- | --- | --- | --- | --- | --- | --- | --- |
| CC1(C)CC(C)(C)c2cccc(NC(=S)Nc3ccc([N+](=O)[O-])cc3)c2S1 [heteroarotinoid 22, [(4-Nitrophenyl)amino][(2,2,4,4-tetramethyl{3H-benzo[3,4-e]thiany-8-yl})amino]methane-1-thione] | 4.07% | 40.13% and 40.14% | −9.97% | 1.09% | – | – | – |
| CCOC(=O)c1ccc(NC(=O)Nc2cc(C(C)=O)cc3c2OCCC3(C)C)cc1 [heteroarotinoid 45, Ethyl 4-{[N-(6-Acetyl-4,4-dimethylchroman-8-yl)carbamoyl]amino}benzoate] | – | – | – | – | – | – | inhibition at 1 µM (OVCAR-3; 1 μM, Table II): 9.2%; inhibition at 10 µM (OVCAR-3; 10 μM, Table III): 47.2%; inhibition at 1 µM (CAOV-3; 1 μM, Table II): 7.18%; inhibition at 10 µM (CAOV-3; 10 μM, Table III): 42.8%; inhibition at 1 µM (SK-OV-3; 1 μM, Table II): -4.18%; inhibition at 10 µM (SK-OV-3; 10 μM, Table III): 20% |
| Cc1cc2c(cc1NC(=S)Nc1ccc([N+](=O)[O-])cc1)C(C)(C)CC(C)(C)S2 [heteroarotinoid 17] | 6.6% | 64.9% | – | 3.0% | 65.3% | – | – |
| CC1(C)CC(C)(C)c2cc(NC(=S)Nc3ccc(S(N)(=O)=O)cc3)ccc2S1 [heteroarotinoid 15] | 8.91% | 40.90% | 19.85% | −1.86% | 9.83% | −9.56% | – |
| CCCCOC(=O)c1ccc(NC(=O)Nc2cc3c(cc2OC)C(C)(C)COC3(C)C)cc1 [heteroarotinoid 34] | 2.2% | 30.5% | – | 22.2% | 6.0% | – | – |
| Cc1cc([N+](=O)[O-])ccc1NC(=S)Nc1cc2c(cc1C)SC(C)(C)CC2(C)C [heteroarotinoid 19] | 9.6% | 33.2% | – | 16.3% | 33.3% | – | – |
| CC(=O)c1cc(NC(=S)Nc2ccc([N+](=O)[O-])cc2)c2c(c1)C(C)(C)CCO2 [heteroarotinoid 46] | 8.57% | 43.15% | 3.85% | −1.53% | 0.25% | −5.35% | – |
| COc1cc2c(cc1NC(=S)Nc1ccc([N+](=O)[O-])cc1C)C(C)(C)OCC2(C)C [heteroarotinoid 35] | 5.6% | 6.1% | – | 10.3% | −14.3% | – | – |
| CC1(C)CC(C)(C)c2cc(NC(=O)Nc3ccc(C(=O)O)cc3)ccc2S1 [heteroarotinoid 14] | −6.70% | 5.45% | −4.00% | 3.58% | 0.43% | 6.12% | – |
| Cc1cc2c(cc1NC(=S)Nc1ccc(C(=O)O)cc1)C(C)(C)CC(C)(C)S2 [heteroarotinoid 18] | 10.1% | 18.7% | – | 10.5% | 8.5% | – | – |
| 13-cis-retinoic acid [13-c-RA, reference compound] | 9.8% | – | – | 28.5% | – | – | – |
| Cc1cc2c(cc1NC(=S)Nc1ccc(S(N)(=O)=O)cc1)C(C)(C)CC(C)(C)S2 [heteroarotinoid 20] | 10.3% | 47.1% | – | 14.7% | 12.1% | – | – |
| trans-retinoic acid [t-RA, reference compound] | 6.0% | −3.0% and 3.0% | – | 8.8% | 6.0% | – | Percentage of induction of apoptosis in SW962 vulvar carcinoma cultures ([1]; Days 0): 3%; Percentage of induction of apoptosis in SW962 vulvar carcinoma cultures ([1]; Days 1): 2.53%; Percentage of induction of apoptosis in SW962 vulvar carcinoma cultures ([1]; Days 3): 1.25%; Percentage of induction of apoptosis in SW962 vulvar carcinoma cultures ([1]; Days 4): 4.5%; Percentage of induction of apoptosis in SW962 vulvar carcinoma cultures ([1]; Days 7): 3.51% |
| CCOC(=O)c1ccc(NC(=O)Nc2cc3c(cc2OC)C(C)(C)COC3(C)C)cc1 [heteroarotinoid 33] | 8.81% | 52.61% | 3.79% | 1.65% | 15.60% | 40.04% | – |
| COc1ccc2c(c1NC(=S)Nc1ccc([N+](=O)[O-])cc1)C(C)(C)COC2(C)C [heteroarotinoid 41] | 7.18% | 81.71% | 7.58% | −2.72% | 45.45% | 61.94% | – |
| CCOC(=O)c1ccc(NC(=S)Nc2cccc3c2SC(C)(C)CC3(C)C)cc1 [heteroarotinoid 23] | −0.19% | 2.75% | 11.36% | −0.79% | 7.67% | 17.77% | – |
| CCOC(=O)c1ccc(NC(=O)Nc2c(OC)ccc3c2C(C)(C)COC3(C)C)cc1 [heteroarotinoid 38, Ethyl 4-{[N-(6-Methoxy-1,1,4,4-tetramethylisochroman-5-yl)carbamoyl]amino}benzoate] | – | – | – | – | – | – | inhibition at 1 µM (OVCAR-3; 1 μM, Table II): 9.48%; inhibition at 10 µM (OVCAR-3; 10 μM, Table III): 8.96%; inhibition at 1 µM (CAOV-3; 1 μM, Table II): 8.79%; inhibition at 10 µM (CAOV-3; 10 μM, Table III): -16.1%; inhibition at 1 µM (SK-OV-3; 1 μM, Table II): -2.39%; inhibition at 10 µM (SK-OV-3; 10 μM, Table III): -7.7% |
| CCCCOC(=O)c1ccc(NC(=O)Nc2c(OC)ccc3c2C(C)(C)COC3(C)C)cc1 [heteroarotinoid 40] | 15.47% | 33.74% | 15.24% | 1.82% | 9.27% | 37.84% | inhibition of growth of the OVCAR cell line exceeding that of 4-HPR (OVCAR-3; 1 μM, Table II): more than 1200%; inhibition of growth of the OVCAR cell line exceeding that of 9-c-RA (OVCAR-3; 1 μM, Table II): about 120%; inhibition of growth of the OVCAR cell line exceeding that of 13-c-RA (OVCAR-3; 1 μM, Table II): about 40%; inhibition of growth of the OVCAR cell line exceeding that of t-RA (OVCAR-3; 1 μM, Table II): about 120% |
